According to ChEMBL document CHEMBL1201862, “PubChem BioAssay data set” (2004):
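Results reflect a 48-hour exposure of cells in 96-well plates to compound at five concentrations. The concentration for 50% growth inhibition is given as GI50.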 Activity calls are given as the source filed them. No stated cut-off is given here; in the data, active = GI50 up to about 1.1 µM and inactive = higher.

Experiments:
Experiment in all cases: DTP human tumour cell line panel, 48 h
OVCAR-5 = system: OVCAR-5
NCI-H23 = system: NCI-H23
SK-MEL-28 = system: SK-MEL-28
PC-3 = system: PC-3
U-251 = system: U-251
SK-MEL-5 = system: SK-MEL-5
COLO 205 = system: COLO 205
UACC-257 = system: UACC-257
SNB-19 = system: SNB-19
MCF7 = system: MCF7
EKVX = system: EKVX
UACC-62 = system: UACC-62
Hs-578T = system: Hs-578T
SK-OV-3 = system: SK-OV-3
SF-539 = system: SF-539
A498 = system: A498
M14 = system: M14
HCT-15 = system: HCT-15
NCI-H522 = system: NCI-H522
Malme-3M = system: Malme-3M

Structure (SMILES) | GI50 (OVCAR-5) | GI50 (NCI-H23) | GI50 (SK-MEL-28) | GI50 (PC-3) | GI50 (U-251) | GI50 (SK-MEL-5) | GI50 (COLO 205) | GI50 (UACC-257) | GI50 (SNB-19) | GI50 (MCF7) | GI50 (EKVX) | GI50 (UACC-62) | GI50 (Hs-578T) | GI50 (SK-OV-3) | GI50 (SF-539) | GI50 (A498) | GI50 (M14) | GI50 (HCT-15) [µM] | GI50 (NCI-H522) | GI50 (Malme-3M)
COc1cc(NCC2COc3c(ccc(OC)c3OC)C2=O)c([N+](=O)[O-])cc1OC (stereo not given) | > 100 µM (inactive) | > 100 µM (inactive) | > 100 µM (inactive) | 94 µM (inactive) | > 100 µM (inactive) | 44.3 µM (inactive) | 54.7 µM (inactive) | > 100 µM (inactive) | > 100 µM (inactive) | 39.3 µM (inactive) | 95.1 µM (inactive) | 77.8 µM (inactive) | 95.3 µM (inactive) | > 100 µM (inactive) | > 100 µM (inactive) | > 100 µM (inactive) | > 100 µM (inactive) | > 100 | 55.7 µM (inactive) | –
OCC1OC(NC(=S)NCSCCC(F)(F)C(F)(F)C(F)(F)C(F)(F)C(F)(F)C(F)(F)F)C(O)C(O)C1O (stereo not given) | 56.1 µM (inactive) | 39.5 µM (inactive) | 5.77 µM (inactive) | 33.6 µM (inactive) | 17.5 µM (inactive) | > 10 µM (inactive) | 77.4 µM (inactive) | 46.6 µM (inactive) | 36.6 µM (inactive) | 40.8 µM (inactive) | – | 32.7 µM (inactive) | 33.5 µM (inactive) | 82 µM (inactive) | 16.6 µM (inactive) | 1.77 µM (inactive) | 17 µM (inactive) | 72.6 | – | 73.8 µM (inactive)
CC(C)NC(=O)OCC[S+]([O-])c1c(Cl)c(Cl)nn1C (stereo not given) | 49 µM (inactive) | 42.9 µM (inactive) | 28.5 µM (inactive) | > 100 µM (inactive) | 33.2 µM (inactive) | 40.9 µM (inactive) | 21.2 µM (inactive) | > 10 µM (inactive) | > 100 µM (inactive) | 29.4 µM (inactive) | > 100 µM (inactive) | 26.6 µM (inactive) | > 100 µM (inactive) | > 100 µM (inactive) | > 100 µM (inactive) | > 100 µM (inactive) | 21.1 µM (inactive) | 20 | 18.5 µM (inactive) | –
Nc1nc(NCC2(CO)CC(CCc3ccccc3)C2)cc(=O)[nH]1 (stereo not given) | > 100 µM (inactive) | > 100 µM (inactive) | > 100 µM (inactive) | > 100 µM (inactive) | > 100 µM (inactive) | > 100 µM (inactive) | > 100 µM (inactive) | > 100 µM (inactive) | > 100 µM (inactive) | > 100 µM (inactive) | > 100 µM (inactive) | > 100 µM (inactive) | > 100 µM (inactive) | 22.2 µM (inactive) | – | > 100 µM (inactive) | > 100 µM (inactive) | > 100 | > 100 µM (inactive) | > 100 µM (inactive)
CC(C)(C)C1CCC(=O)/C(=C/CC2CC(=O)N(c3ccccc3)C(=O)C2)C1 (stereo not given) | 17.4 µM (inactive) | 17.8 µM (inactive) | 21.2 µM (inactive) | 27.5 µM (inactive) | 14.9 µM (inactive) | 16.4 µM (inactive) | 20.8 µM (inactive) | 14.7 µM (inactive) | 22 µM (inactive) | 19.3 µM (inactive) | 26 µM (inactive) | 14.5 µM (inactive) | 33.1 µM (inactive) | – | – | 24.5 µM (inactive) | – | 15.5 | 18.9 µM (inactive) | 18.6 µM (inactive)
COc1ccc(N2C=Nn3c(nc4sc5c(c4c3=O)CCCC5)C2)cc1 | 32.4 µM (inactive) | 26.1 µM (inactive) | > 100 µM (inactive) | > 100 µM (inactive) | 16.7 µM (inactive) | > 100 µM (inactive) | > 100 µM (inactive) | 56.1 µM (inactive) | 28.2 µM (inactive) | > 100 µM (inactive) | 73.6 µM (inactive) | 12.2 µM (inactive) | 3.02 µM (inactive) | > 100 µM (inactive) | – | 14 µM (inactive) | 32.5 µM (inactive) | > 100 | 16.3 µM (inactive) | 18.1 µM (inactive)
On1c(-c2ccccc2)nc2ccccc2c1=S | > 100 µM (inactive) | 3.43 µM (inactive) | 7.41 µM (inactive) | 3.61 µM (inactive) | 4.95 µM (inactive) | 3.58 µM (inactive) | 3.12 µM (inactive) | 54.3 µM (inactive) | 12.3 µM (inactive) | 6.9 µM (inactive) | 10.3 µM (inactive) | 3.7 µM (inactive) | 16.5 µM (inactive) | 6.92 µM (inactive) | 4.32 µM (inactive) | 42.2 µM (inactive) | 2.91 µM (inactive) | 1.36 | – | 5 µM (inactive)
CS(=O)(=O)c1ccc(/C=N/NC(N)=S)cc1 | > 100 µM (inactive) | > 100 µM (inactive) | > 100 µM (inactive) | > 100 µM (inactive) | > 100 µM (inactive) | > 100 µM (inactive) | > 100 µM (inactive) | > 100 µM (inactive) | > 100 µM (inactive) | > 100 µM (inactive) | > 100 µM (inactive) | > 100 µM (inactive) | > 100 µM (inactive) | > 100 µM (inactive) | – | > 100 µM (inactive) | > 100 µM (inactive) | > 100 | > 100 µM (inactive) | > 100 µM (inactive)
O=C(/C=C1\N=C(c2ccccc2)N(c2nc3c(Cl)cc(Cl)cc3s2)C1=O)/C=C/c1ccccc1 | > 100 µM (inactive) | > 100 µM (inactive) | > 100 µM (inactive) | 69.3 µM (inactive) | > 100 µM (inactive) | 56.4 µM (inactive) | 47.6 µM (inactive) | > 100 µM (inactive) | > 100 µM (inactive) | 63 µM (inactive) | > 100 µM (inactive) | 54.7 µM (inactive) | > 100 µM (inactive) | > 100 µM (inactive) | – | 67.5 µM (inactive) | > 100 µM (inactive) | 73.1 | 45.1 µM (inactive) | > 100 µM (inactive)
O=C(Nc1nn(C(=O)c2ccc(Cl)cc2)c(=O)s1)c1ccc(Cl)cc1 | > 100 µM (inactive) | > 100 µM (inactive) | > 100 µM (inactive) | > 100 µM (inactive) | > 100 µM (inactive) | > 100 µM (inactive) | > 100 µM (inactive) | > 100 µM (inactive) | > 100 µM (inactive) | > 100 µM (inactive) | 94.8 µM (inactive) | > 100 µM (inactive) | > 100 µM (inactive) | > 100 µM (inactive) | – | > 100 µM (inactive) | > 100 µM (inactive) | > 100 | > 100 µM (inactive) | > 100 µM (inactive)
CN(CO)c1nc(N(C)CO)nc(N(C)CO)n1 [TRIMELAMOL] | 26.4 µM (inactive) | 19.3 µM (inactive) | 13.6 µM (inactive) | 21.8 µM (inactive) | 19.5 µM (inactive) | 6.95 µM (inactive) | 8.53 µM (inactive) | – | 16.1 µM (inactive) | 16.1 µM (inactive) | 19.7 µM (inactive) | 13.3 µM (inactive) | 27.8 µM (inactive) | 21.9 µM (inactive) | – | 23.7 µM (inactive) | 21.8 µM (inactive) | 9.89 | 20.9 µM (inactive) | 12.8 µM (inactive)
